# Test results: patent US8975291B2, “Indoles” (GlaxoSmithKline LLC, priority 2010, dated 2015)
# Where two headings read alike, the source gives them in different places.
# Target: T1, EZH2 within the PRC2 complex (Homo sapiens, UniProt Q15910)
# T1 construct: FLAG; made in house; host or cells: Sf9 cells
# Test: EZH2 methyltransferase scintillation proximity assay (SPA) with PRC2 complex
# Format: biochemical
# Description: Compounds contained herein were evaluated for their ability to inhibit the methyltransferase activity of EZH2 within the PRC2 complex. Human PRC2 complex was prepared by co-expressing each of the 5 member proteins (FLAG-EZH2, EED, SUZ12, RbAp48, AEBP2) in Sf9 cells followed by co-purification. Enzyme activity was measured in a scintillation proximity assay (SPA) where a tritiated methyl group is transferred from 3H-SAM to a lysine residue on Histone H3 of a mononucleosome, purified from HeLa cells. Mononucleosomes were captured on SPA beads and the resulting signal is read on a ViewLux plate reader.
# Part A. Compound Preparation
# • 1. Prepare 10 mM stock of compounds from solid in 100% DMSO. • 2. Set up an 11-point serial dilution (1:3 dilution, top concentration 10 mM) in 100% DMSO for each test compound in a 384 well plate leaving columns 6 and 18 for DMSO controls. • 3. Dispense […] of compound from the dilution plate into reaction plates (Grenier Bio-One, 384-well, Cat #784075). Part B. Reagent Preparation Prepare the following solutions: • 1. 50 mM Tris-HCl, pH 8: Per 1 L of base buffer, combine 1 M Tris-HCl, pH 8 (50 mL) and distilled water (950 mL). • 2. […] 2× Enzyme Solution: Per 10 mL of 2× Enzyme Solution, combine 1× Assay Buffer and PRC2 complex to provide a final enzyme concentration of 10 nM. • 4. SPA Bead Suspension: Per 1 mL of SPA Bead Suspension, combine PS-PEI coated LEADSeeker beads (40 mg) and ddH2O (1 mL) to provide a final concentration of 40 mg/mL. • 5. 2× Substrate Solution: Per 10 mL of 2× Substrate Solution, combine 1× Assay Buffer (9728.55 uL), 800 ug/mL mononucleosomes (125 uL), 1 mM cold SAM (4 uL), and 7.02 uM 3H-SAM (142.45 uL; 0.55 mCi/mL) to provide a final concentration of 5 ug/mL nucleosomes, 0.2 uM cold SAM, and 0.05 uM 3H-SAM. • 6. 2.67× Quench/Bead Mixture: Per 10 mL of 2.67× Quench/Bead Mixture, combine ddH2O (9358 uL), 10 mM cold SAM (267 uL), 40 mg/mL Bead Suspension (375 uL) to provide a final concentration of 100 uM cold SAM and 0.5 mg/mL SPA beads. Part C. Assay Reaction in 384-well Grenier Bio-One Plates Compound Addition • 1. Dispense […] of 100× Compound to test wells (as noted above). • 2. Dispense […] of 100% DMSO to columns 6 & 18 for high and low controls, respectively. Assay • 1. […] Dispense 5 uL/well of 2× Enzyme Solution to columns 1-17, 19-24. • 3. Spin assay plates for ˜1 minute at 500 rpm. • 4. Stack the assay plates, covering the top plate. • 5. Incubate the compound/DMSO with the enzyme for 30 minutes at room temperature. • 6. Dispense 5 uL/well of 2× Substrate Solution to columns 1-24. • 7. Spin assay plates for ˜1 minute at 500 rpm. • 8. Stack the assay plates, covering the top plate. • 9. Incubate the assay plates at room temperature for 1 hour. Quench/Bead Addition • 1. Dispense 5 uL/well of the 3× Quench/Bead Mixture to columns 1-24. • 2. Seal the top of each assay plate with adhesive TopSeal. • 3. Spin assay plates for ˜1 minute at 500 rpm. • 4. Equilibrate the plates for >20 min. Read Plates • 1. Read the assay plates on the Viewlux Plate Reader utilizing the 613 nm emission filter with a 300 s read time. Reagent addition can be done manually or with automated liquid handler. • The final DMSO concentration in this assay is 1%. • The positive control is in column 6; negative control is in column 18. • Final starting concentration of compounds is 100 μM. Part D. Data Analysis
# Percent inhibition was calculated relative to the DMSO control for each compound concentration and the resulting values were fit using standard IC50 fitting parameters within the ABASE data fitting software package.
# [1] = EZH2 inhibition, foregoing or analogous assay, unit inferred, read-out: IC50
# [2] = 3H-SAM methyl transfer to Histone H3 of HeLa mononucleosomes, read-out: EZH2 pIC50 (converted)
# T1 sequence (Q15910 whole entry): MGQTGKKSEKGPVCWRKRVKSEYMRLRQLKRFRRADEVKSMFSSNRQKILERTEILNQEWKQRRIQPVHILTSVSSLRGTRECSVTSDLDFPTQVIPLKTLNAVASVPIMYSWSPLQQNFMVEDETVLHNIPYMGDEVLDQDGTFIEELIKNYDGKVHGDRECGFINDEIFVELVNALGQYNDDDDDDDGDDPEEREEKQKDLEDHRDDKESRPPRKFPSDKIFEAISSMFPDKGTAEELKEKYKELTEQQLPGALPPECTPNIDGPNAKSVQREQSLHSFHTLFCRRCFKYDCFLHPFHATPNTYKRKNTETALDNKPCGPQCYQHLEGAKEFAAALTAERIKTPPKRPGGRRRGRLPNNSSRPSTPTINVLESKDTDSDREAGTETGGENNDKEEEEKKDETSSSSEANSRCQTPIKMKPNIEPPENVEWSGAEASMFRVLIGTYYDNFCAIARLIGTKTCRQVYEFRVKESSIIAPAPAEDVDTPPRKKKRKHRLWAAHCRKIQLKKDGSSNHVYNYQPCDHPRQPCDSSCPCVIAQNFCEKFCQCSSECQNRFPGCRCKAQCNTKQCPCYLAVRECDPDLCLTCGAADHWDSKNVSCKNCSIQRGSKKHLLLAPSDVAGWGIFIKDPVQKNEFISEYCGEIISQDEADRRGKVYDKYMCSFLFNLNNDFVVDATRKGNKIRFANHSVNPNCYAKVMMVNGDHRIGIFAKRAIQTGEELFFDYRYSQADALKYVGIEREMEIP
# T1 sequence (O75530 whole entry partner): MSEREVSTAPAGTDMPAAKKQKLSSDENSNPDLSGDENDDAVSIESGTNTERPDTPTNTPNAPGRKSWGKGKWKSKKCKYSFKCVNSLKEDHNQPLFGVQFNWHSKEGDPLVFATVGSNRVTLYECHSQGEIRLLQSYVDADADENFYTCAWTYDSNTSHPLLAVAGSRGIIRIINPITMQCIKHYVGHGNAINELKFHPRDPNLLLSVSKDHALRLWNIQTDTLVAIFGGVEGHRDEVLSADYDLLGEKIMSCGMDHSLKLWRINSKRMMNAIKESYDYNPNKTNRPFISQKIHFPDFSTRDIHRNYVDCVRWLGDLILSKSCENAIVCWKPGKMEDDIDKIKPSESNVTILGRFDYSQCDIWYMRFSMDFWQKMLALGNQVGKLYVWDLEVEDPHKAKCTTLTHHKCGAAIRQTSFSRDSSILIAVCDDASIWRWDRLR
# T1 sequence (Q15022 whole entry partner): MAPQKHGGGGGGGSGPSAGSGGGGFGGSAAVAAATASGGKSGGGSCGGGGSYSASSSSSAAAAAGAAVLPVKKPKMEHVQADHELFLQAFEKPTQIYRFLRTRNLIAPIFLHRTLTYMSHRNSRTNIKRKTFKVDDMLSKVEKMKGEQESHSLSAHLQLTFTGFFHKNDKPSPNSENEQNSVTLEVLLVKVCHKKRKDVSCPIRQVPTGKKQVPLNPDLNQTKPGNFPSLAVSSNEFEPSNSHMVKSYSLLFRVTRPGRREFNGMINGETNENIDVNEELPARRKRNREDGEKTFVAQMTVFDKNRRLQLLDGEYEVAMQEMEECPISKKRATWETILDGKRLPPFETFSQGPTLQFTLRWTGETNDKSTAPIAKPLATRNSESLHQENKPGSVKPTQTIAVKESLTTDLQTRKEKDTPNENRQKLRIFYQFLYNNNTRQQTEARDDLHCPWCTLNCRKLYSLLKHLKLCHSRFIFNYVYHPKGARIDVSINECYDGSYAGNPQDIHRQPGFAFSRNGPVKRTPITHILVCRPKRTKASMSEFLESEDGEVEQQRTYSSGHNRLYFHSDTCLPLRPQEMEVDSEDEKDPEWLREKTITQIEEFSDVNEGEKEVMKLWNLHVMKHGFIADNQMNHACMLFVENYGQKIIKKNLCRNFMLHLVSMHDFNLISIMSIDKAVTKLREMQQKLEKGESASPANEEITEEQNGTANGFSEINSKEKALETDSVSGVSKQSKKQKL
# T1 sequence (Q09028 whole entry partner): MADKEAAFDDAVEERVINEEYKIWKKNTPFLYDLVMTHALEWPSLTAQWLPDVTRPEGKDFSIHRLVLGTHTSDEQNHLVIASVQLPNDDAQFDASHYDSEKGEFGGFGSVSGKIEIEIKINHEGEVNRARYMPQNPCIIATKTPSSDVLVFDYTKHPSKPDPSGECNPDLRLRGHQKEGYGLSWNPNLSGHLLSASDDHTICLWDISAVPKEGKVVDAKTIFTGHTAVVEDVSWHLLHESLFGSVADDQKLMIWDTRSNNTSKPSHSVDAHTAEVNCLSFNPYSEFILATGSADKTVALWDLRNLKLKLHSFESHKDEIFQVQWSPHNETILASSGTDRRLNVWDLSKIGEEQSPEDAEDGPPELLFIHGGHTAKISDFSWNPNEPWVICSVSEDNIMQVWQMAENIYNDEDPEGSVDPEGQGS
# T1 sequence (Q6ZN18 whole entry partner): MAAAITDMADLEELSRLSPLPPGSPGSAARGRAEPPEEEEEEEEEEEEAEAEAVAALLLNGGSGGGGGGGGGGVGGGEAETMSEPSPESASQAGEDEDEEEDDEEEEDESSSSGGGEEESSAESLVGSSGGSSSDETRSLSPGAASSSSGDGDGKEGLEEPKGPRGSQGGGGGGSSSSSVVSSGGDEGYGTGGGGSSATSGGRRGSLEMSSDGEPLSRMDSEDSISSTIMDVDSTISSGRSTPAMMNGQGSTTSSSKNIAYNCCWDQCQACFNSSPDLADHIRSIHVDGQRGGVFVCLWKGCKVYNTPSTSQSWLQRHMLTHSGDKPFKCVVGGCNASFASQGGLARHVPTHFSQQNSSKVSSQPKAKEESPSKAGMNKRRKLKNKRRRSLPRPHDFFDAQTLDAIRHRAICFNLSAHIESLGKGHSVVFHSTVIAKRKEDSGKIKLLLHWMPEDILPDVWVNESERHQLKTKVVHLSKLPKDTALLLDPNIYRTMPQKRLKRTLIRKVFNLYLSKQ
compound,measurement,setting,value
"Cc1cc(C)c(CNC(=O)c2cc(Br)cc3c2c(C)cn3CC(C)N(C)C)c(=O)[nH]1 (centres unmarked) [Ex 78, 6-bromo-N-((4,6-dimethyl-2-oxo-1,2-dihydropyridin-3-yl)methyl)-1-(2-(dimethylamino)propyl)-3-methyl-1H-indole-4-carboxamide]",IC50,[1],1800 nM
"Cc1cc(C)c(CNC(=O)c2cc(-c3ccc(OCCN(C)C)cc3)cc3c2c(C)cn3C(C)C)c(=O)[nH]1 [Ex 174, 6-(4-{[2-(dimethylamino)ethyl]oxy}phenyl)-N-[(4,6-dimethyl-2-oxo-1,2-dihydro-3-pyridinyl)methyl]-3-methyl-1-(1-methylethyl)-1H-indole-4-carboxamide]",IC50,[1],18 nM
"Cc1cc(C)c(CNC(=O)c2cc(-c3ccc4[nH]cnc4c3)cc3c2c(C)cn3C(C)C)c(=O)[nH]1 [Ex 211, 6-(1H-benzimidazol-5-yl)-N-[(4,6-dimethyl-2-oxo-1,2-dihydro-3-pyridinyl)methyl]-3-methyl-1-(1-methylethyl)-1H-indole-4-carboxamide]",IC50,[1],14 nM
"Cc1cc(C)c(CNC(=O)c2cc(-c3ccc4c(N)n[nH]c4c3)cc3c2c(C)cn3C(C)C)c(=O)[nH]1 [Ex 212, 6-(3-amino-1H-indazol-6-yl)-N-[(4,6-dimethyl-2-oxo-1,2-dihydro-3-pyridinyl)methyl]-3-methyl-1-(1-methylethyl)-1H-indole-4-carboxamide]",IC50,[1],9 nM
"Cc1cc(Cn2cccn2)c(CNC(=O)c2cc(Br)cc3c2c(C)cn3C(C)C)c(=O)[nH]1 [Ex 234, 6-bromo-3-methyl-1-(1-methylethyl)-N-{[6-methyl-2-oxo-4-(1H-pyrazol-1-ylmethyl)-1,2-dihydro-3-pyridinyl]methyl}-1H-indole-4-carboxamide]",IC50,[1],1000 nM
"Cc1cc(C)c(CNC(=O)c2cc(-c3cc4[nH]ncc4cn3)cc3c2c(C)cn3C(C)C)c(=O)[nH]1 [Ex 244, N-((4,6-dimethyl-2-oxo-1,2-dihydropyridin-3-yl)methyl)-1-isopropyl-3-methyl-6-(1H-pyrazolo[4,3-c]pyridin-6-yl)-1H-indole-4-carboxamide]",IC50,[1],29 nM
"CCC(C)n1cc(C)c2c(C(=O)NCc3c(C)cc(C)[nH]c3=O)cc(Br)cc21 (centres unmarked) [Ex 266, 6-bromo-1-(sec-butyl)-N-((4,6-dimethyl-2-oxo-1,2-dihydropyridin-3-yl)methyl)-3-methyl-1H-indole-4-carboxamide]",IC50,[1],25 nM
"CC[C@H](C)n1cc(C)c2c(C(=O)NCc3c(C)cc(C)[nH]c3=O)cc(Br)cc21 [Ex 267, (S)-6-bromo-1-(sec-butyl)-N-((4,6-dimethyl-2-oxo-1,2-dihydropyridin-3-yl)methyl)-3-methyl-1H-indole-4-carboxamide]",IC50,[1],20 nM
"CC[C@@H](C)n1cc(C)c2c(C(=O)NCc3c(C)cc(C)[nH]c3=O)cc(Br)cc21 [Ex 268, (R)-6-Bromo-1-(sec-butyl)-N-((4,6-dimethyl-2-oxo-1,2-dihydropyridin-3-yl)methyl)-3-methyl-1H-indole-4-carboxamide]",IC50,[1],40 nM
"CCC(C)n1cc(C)c2c(C(=O)NCc3c(C)cc(C)[nH]c3=O)cc(-c3cccc(CN(C)C)c3)cc21 (centres unmarked) [Ex 272, 1-(sec-Butyl)-N-((4,6-dimethyl-2-oxo-1,2-dihydropyridin-3-yl)methyl)-6-(3-((dimethylamino)methyl)phenyl)-3-methyl-1H-indole-4-carboxamide]",IC50,[1],13 nM
"CC[C@H](C)n1cc(C)c2c(C(=O)NCc3c(C)cc(C)[nH]c3=O)cc(-c3cccc(CN(C)C)c3)cc21 [Ex 273, 6-{3-[(Dimethylamino)methyl]phenyl}-N-[(4,6-dimethyl-2-oxo-1,2-dihydro-3-pyridinyl)methyl]-3-methyl-1-[(1S)-1-methylpropyl]-1H-indole-4-carboxamide]",IC50,[1],10 nM
"CC[C@@H](C)n1cc(C)c2c(C(=O)NCc3c(C)cc(C)[nH]c3=O)cc(-c3cccc(CN(C)C)c3)cc21 [Ex 274, 6-{3-[(dimethylamino)methyl]phenyl}-N-[(4,6-dimethyl-2-oxo-1,2-dihydro-3-pyridinyl)methyl]-3-methyl-1-[(1R)-1-methylpropyl]-1H-indole-4-carboxamide]",IC50,[1],32 nM
"Cc1cc(C)c(CNC(=O)c2cc(-c3ccc(N4CCNCC4)nc3)cc3c2c(C)cn3C2CCCC2)c(=O)[nH]1 [Ex 275, 1-cyclopentyl-N-((4,6-dimethyl-2-oxo-1,2-dihydropyridin-3-yl)methyl)-3-methyl-6-(6-(piperazin-1-yl)pyridin-3-yl)-1H-indole-4-carboxamide]",IC50,[1],3 nM
"Cc1cc(C)c(CNC(=O)c2cc(-c3ccc(N4CCNC(C)(C)C4)nc3)cc3c2c(C)cn3C(C)C)c(=O)[nH]1 [Ex 339, N-[(4,6-dimethyl-2-oxo-1,2-dihydro-3-pyridinyl)methyl]-6-[6-(3,3-dimethyl-1-piperazinyl)-3-pyridinyl]-3-methyl-1-(1-methylethyl)-1H-indole-4-carboxamide]",IC50,[1],13 nM
"Cc1cc(C)c(CNC(=O)c2cc(-c3ccc(CN4C[C@@H](C)O[C@@H](C)C4)nc3)cc3c2c(C)cn3C(C)C)c(=O)[nH]1 [Example 348, 6-(6-{[(2R,6S)-2,6-dimethyl-4-morpholinyl]methyl}-3-pyridinyl)-N-[(4,6-dimethyl-2-oxo-1,2-dihydro-3-pyridinyl)methyl]-3-methyl-1-(1-methylethyl)-1H-indole-4-carboxamide]",IC50,[2],36.3 nM
"Cc1cc(C)c(CNC(=O)c2cc(-c3ccc(CN4CCN(C)CC4)nc3)cc3c2c(C)cn3C(C)C)c(=O)[nH]1 [Example 349, N-[(4,6-dimethyl-2-oxo-1,2-dihydro-3-pyridinyl)methyl]-3-methyl-1-(1-methylethyl)-6-{6-[(4-methyl-1-piperazinyl)methyl]-3-pyridinyl}-1H-indole-4-carboxamide]",IC50,[2],25.1 nM
"Cc1cc(C)c(CNC(=O)c2cc(-c3ccc(CN4CCOCC4)nc3)cc3c2c(C)cn3C(C)C)c(=O)[nH]1 [Example 350, N-[(4,6-dimethyl-2-oxo-1,2-dihydro-3-pyridinyl)methyl]-3-methyl-1-(1-methylethyl)-6-[6-(4-morpholinylmethyl)-3-pyridinyl]-1H-indole-4-carboxamide]",IC50,[2],22.9 nM
"Cc1cc(C)c(CNC(=O)c2cc(B(O)O)cc3c2c(C)cn3C(C)C)c(=O)[nH]1 [Example 358, [4-({[(4,6-dimethyl-2-oxo-1,2-dihydro-3-pyridinyl)methyl]amino)carbonyl)-3-methyl-1-(1-methylethyl)-1H-indol-6-yl]boronic acid]",IC50,[2],468 nM
"Cc1cc(C)c(CNC(=O)c2cc(-c3ccc(CO)nc3)cc3c2c(C)cn3C(C)C)c(=O)[nH]1 [Example 359, N-[(4,6-dimethyl-2-oxo-1,2-dihydro-3-pyridinyl)methyl]-6-[6-(hydroxymethyl)-3-pyridinyl]-3-methyl-1-(1-methylethyl)-1H-indole-4-carboxamide]",IC50,[2],58.9 nM
"Cc1cc(C)c(CNC(=O)c2cc(C3COC3)cc3c2c(C)cn3C(C)C)c(=O)[nH]1 [Example 360, N-[(4,6-dimethyl-2-oxo-1,2-dihydro-3-pyridinyl)methyl]-3-methyl-1-(1-methylethyl)-6-(3-oxetanyl)-1H-indole-4-carboxamide]",IC50,[2],288 nM
